Data on 13 compounds can be found in BindingDB's records for doi:10.1080/14756360310001612211 (Kobe Gakuin University, 2003).

One may read the IC50 as the concentration that gives 50% inhibition. A higher IC50 goes with weaker potency in that assay.

The target of this assay is Proto-oncogene tyrosine-protein kinase Src (Gallus gallus, UniProt P00523). Description: Tyrosine Kinase Assay. The conditions noted are these: 37 °C. The source says:
Takara Universal Tyrosine Assay Kit (Takara-bio co) was used to test the synthesized compounds. This assay kit determines the inhibition activities of inhibitors against a substrate of tyrosine kinase.

Values joined by “and” are separate entries in the source; they are usually repeats but may differ in a detail not shown here. Equal values may be shown once.

For the compound `O=C(OCCN(N1CCCCC1)N1CCCCC1)c1cc2ccccc2[nH]1` [Indole ester derivative, 27], the half-inhibitory concentration (IC50) was 830 µM and > 500 µM.
In turn, `O=C(OCCN(n1cccc1)n1cccc1)c1cc2ccccc2[nH]1` [Indole ester derivative, 24] displayed an IC50 of 21.4 µM. That is a double-digit micromolar value.
Turning to `CCN(CC)CCOC(=O)c1cc2ccccc2n1-c1ccccc1` [Indole ester derivative, 18], the half-inhibitory concentration (IC50) was > 1000 µM and 817 µM.
In the case of `CN(C)CCOC(=O)c1cc2ccccc2n1-c1ccccc1` [Indole ester derivative, 17], the IC50 is > 1000 µM.
Next, `O=C(OCCN(N1CCCCC1)N1CCCCC1)c1cc2ccccc2n1-c1ccccc1` [Indole ester derivative, 16]: 306 µM and > 1000 µM and 279 µM.
As to `CC(CN(C)C)OC(=O)c1cc2ccccc2n1-c1ccccc1` (stereo not drawn) [Indole ester derivative, 21], the half-inhibitory concentration (IC50) was > 1000 µM.
Regarding `CCN(CC)CCOC(=O)c1cc2ccccc2n1Cc1ccccc1` [Indole ester derivative, 7], the IC50 was > 1000 µM and 614 µM.
Next, `CC(CN(C)C)OC(=O)c1cc2ccccc2n1Cc1ccccc1` (stereo not drawn) [Indole ester derivative, 10]: > 1000 µM; `CC(CN(C)C)OC(=O)c1cc2ccccc2[nH]1` (stereo not drawn) [Indole ester derivative, 26]: > 500 µM; `CCN(CC)CCOC(=O)c1cc2ccccc2[nH]1` [Indole ester derivative, 23]: > 1000 µM.
Turning to `O=C(OCCN(n1cccc1)n1cccc1)c1cc2ccccc2n1-c1ccccc1` [Indole ester derivative, 19], the half-maximal inhibitory concentration (IC50) is 258 µM and > 1000 µM.
Consider `O=C(OCCN(n1cccc1)n1cccc1)c1cc2ccccc2n1Cc1ccccc1` [Indole ester derivative, 8], for which the half-maximal inhibitory concentration (IC50) is > 1000 µM and 215 µM.
For the compound `CN(C)CCOC(=O)c1cc2ccccc2n1Cc1ccccc1` [Indole ester derivative, 6], the IC50 is > 500 µM and 631 µM.
